# Measured values published in patent US10131652B2, “Pyrimidinyloxy benzene derivatives as herbicides” (E. I. DU PONT DE NEMOURS AND COMPANY, priority 2014, dated 2018).
# Experiments:
# Assay type in all cases: in vivo
# [1] = system: ragweed (common ragweed, Ambrosia elatior); experiment: Test B pre-/postemergence plant response
# In short: (§1)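 Scoring used a 0–100 scale (100 = complete control) by visual comparison with untreated plants after approximately 10 days in the greenhouse. Compounds, in surfactant-containing non-phytotoxic solvent, were sprayed onto soil at planting or onto 2–10 cm seedlings.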
# kochia (Kochia scoparia) = experiment: Test B pre-/postemergence plant response
# In short: as §1
# [2] = system: barnyardgrass (Echinochloa crus-galli); experiment: Test B pre-/postemergence plant response
# In short: as §1
# [3] = system: wheat (Triticum aestivum); experiment: Test B pre-/postemergence plant response
# In short: as §1
# corn (Zea mays) = experiment: Test B pre-/postemergence plant response
# In short: as §1
# [4] = system: pigweed (Amaranthus retroflexus); experiment: Test B pre-/postemergence plant response
# In short: as §1
# [5] = system: Italian ryegrass (Lolium multiflorum); experiment: Test B pre-/postemergence plant response
# In short: as §1
# [6] = system: giant foxtail (Setaria faberii); experiment: Test B pre-/postemergence plant response
# In short: as §1
# rice (Oryza sativa) = experiment: Test C flooded paddy test plant response; details: Flood, 250 g ai/ha; scale of 0 to 100 where 0 is no effect and 100 is complete control; 13 to 15 days
# In short: (§2)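 Greenhouse paddy assay, 13–15 days. Treatment into 3 cm floodwater over 2-leaf plants; visual 0–100 rating against controls.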
# [7] = system: ducksalad (Heteranthera limosa); experiment: Test C flooded paddy test plant response; details: Flood, 250 g ai/ha; scale of 0 to 100 where 0 is no effect and 100 is complete control; 13 to 15 days
# In short: as §2
# [8] = system: barnyardgrass (Echinochloa crus-galli); experiment: Test C flooded paddy test plant response; details: Flood, 250 g ai/ha; scale of 0 to 100 where 0 is no effect and 100 is complete control; 13 to 15 days
# In short: as §2
# [9] = system: small-flower umbrella sedge (Cyperus difformis); experiment: Test C flooded paddy test plant response; details: Flood, 250 g ai/ha; scale of 0 to 100 where 0 is no effect and 100 is complete control; 13 to 15 days
# In short: as §2
# [10] = system: blackgrass (Alopecurus myosuroides); experiment: Test B postemergence plant response
# In short: (§3)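 Pots, loam soil + sand; postemergence treatment at 1–2 leaf stage, 2–10 cm; greenhouse ~10 d; visual injury score 0 (none) to 100 (complete control) relative to untreated controls.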
# [11] = system: galium (catchweed bedstraw, Galium aparine); experiment: Test B postemergence plant response
# In short: as §3
# [12] = 125 g ai/ha, postemergence, 0 to 100 scale, 0 no effect, 100 complete control
# [13] = Postemergence, 500 g ai/ha, 0 to 100 scale (0 no effect, 100 complete control)
# [14] = Preemergence, 125 g ai/ha, 0 to 100 scale (0 no effect, 100 complete control)
# [15] = Preemergence, 500 g ai/ha, 0 to 100 scale where 0 is no effect and 100 is complete control
# [16] = 31 g ai/ha, Postemergence, 0 to 100 scale, 0 no effect, 100 complete control
# [17] = Preemergence, 31 g ai/ha, 0 to 100 scale (0 no effect, 100 complete control)
# [18] = Preemergence, 125 g ai/ha, 0 to 100 scale where 0 is no effect and 100 is complete control
# [19] = 31 g ai/ha, Preemergence, 0 to 100 scale where 0 is no effect and 100 is complete control
# [20] = Postemergence, 31 g ai/ha, 0 to 100 scale (0 no effect, 100 complete control)
compound,measurement,setting,value
Clc1cnc(Oc2ccccc2-c2cc(Cl)ncn2)nc1 [Compound 190],"Plant response rating, Ragweed",[1]; [12],10
same,"Plant response rating, Ragweed",[1]; [13],10
same,Ragweed plant response rating,[1]; [14],0
same,"Plant response rating, Ragweed",[1]; [15],0
same,"Plant response rating, Kochia",kochia (Kochia scoparia); [12],0
same,"Plant response rating, Kochia",kochia (Kochia scoparia); [13],0
same,Kochia plant response rating,kochia (Kochia scoparia); [14],0
same,"Plant response rating, Kochia",kochia (Kochia scoparia); [15],0
same,"Plant response rating, Barnyardgrass",[2]; [12],0
same,"Plant response rating, Barnyardgrass",[2]; [13],0
same,Barnyardgrass plant response rating,[2]; [14],0
same,"Plant response rating, Barnyardgrass",[2]; [15],0
same,"Plant response rating, Wheat",[3]; [12],0
same,"Plant response rating, Wheat",[3]; [13],0
same,"Plant response rating, Corn",corn (Zea mays); [12],0
same,"Plant response rating, Corn",corn (Zea mays); [13],0
same,"Plant response rating, Pigweed",[4]; [12],0
same,"Plant response rating, Pigweed",[4]; [13],20
same,Pigweed plant response rating,[4]; [14],0
same,"Plant response rating, Pigweed",[4]; [15],10
same,"Plant response rating, Ryegrass, Italian",[5]; [12],0
same,"Plant response rating, Ryegrass, Italian",[5]; [13],0
same,"Ryegrass, Italian plant response rating",[5]; [14],0
same,"Plant response rating, Ryegrass, Italian",[5]; [15],0
same,"Plant response rating, Foxtail, Giant",[6]; [12],0
same,"Plant response rating, Foxtail, Giant",[6]; [13],0
same,"Foxtail, Giant plant response rating",[6]; [14],0
same,"Plant response rating, Foxtail, Giant",[6]; [15],10
same,Rice plant response rating,rice (Oryza sativa),0
same,Ducksalad plant response rating,[7],0
same,Barnyardgrass plant response rating,[8],0
same,"Sedge, Umbrella plant response rating",[9],0
same,"Plant response rating, Blackgrass",[10]; [12],0
same,"Plant response rating, Blackgrass",[10]; [13],0
same,"Plant response rating, Galium",[11]; [12],0
same,"Plant response rating, Galium",[11]; [13],10
CCn1nc(C(F)(F)F)cc1-c1c(C#N)cccc1Oc1ncc(Cl)cn1 [Compound 89],"Plant response rating, Ragweed",[1]; [16],10
same,"Plant response rating, Ragweed",[1]; [12],10
same,Ragweed plant response rating,[1]; [17],0
same,"Plant response rating, Ragweed",[1]; [18],0
same,"Plant response rating, Kochia",kochia (Kochia scoparia); [16],50
same,"Plant response rating, Kochia",kochia (Kochia scoparia); [12],70
same,Kochia plant response rating,kochia (Kochia scoparia); [17],0
same,"Plant response rating, Kochia",kochia (Kochia scoparia); [18],0
same,"Plant response rating, Barnyardgrass",[2]; [16],10
same,"Plant response rating, Barnyardgrass",[2]; [12],30
same,Barnyardgrass plant response rating,[2]; [17],10
same,"Plant response rating, Barnyardgrass",[2]; [18],70
same,"Plant response rating, Wheat",[3]; [16],0
same,"Plant response rating, Wheat",[3]; [12],0
same,"Plant response rating, Corn",corn (Zea mays); [16],10
same,"Plant response rating, Corn",corn (Zea mays); [12],30
same,"Plant response rating, Pigweed",[4]; [16],60
same,"Plant response rating, Pigweed",[4]; [12],90
same,Pigweed plant response rating,[4]; [17],100
same,"Plant response rating, Pigweed",[4]; [18],100
same,"Plant response rating, Ryegrass, Italian",[5]; [16],0
same,"Plant response rating, Ryegrass, Italian",[5]; [12],0
same,"Ryegrass, Italian plant response rating",[5]; [17],0
same,"Plant response rating, Ryegrass, Italian",[5]; [18],0
same,"Plant response rating, Foxtail, Giant",[6]; [16],10
same,"Plant response rating, Foxtail, Giant",[6]; [12],40
same,"Foxtail, Giant plant response rating",[6]; [17],40
same,"Plant response rating, Foxtail, Giant",[6]; [18],90
same,Rice plant response rating,rice (Oryza sativa),0
same,Ducksalad plant response rating,[7],30
same,Barnyardgrass plant response rating,[8],0
same,"Sedge, Umbrella plant response rating",[9],80
same,"Plant response rating, Blackgrass",[10]; [16],10
same,"Plant response rating, Blackgrass",[10]; [12],20
same,"Plant response rating, Galium",[11]; [16],10
same,"Plant response rating, Galium",[11]; [12],50
COc1cccc(Oc2ncc(Cl)cn2)c1-c1cc(C(F)F)no1 [Compound 103],"Plant response rating, Ragweed",[1]; [16],20
same,"Plant response rating, Ragweed",[1]; [12],60
same,Ragweed plant response rating,[1]; [17],0
same,"Plant response rating, Ragweed",[1]; [18],10
same,"Plant response rating, Kochia",kochia (Kochia scoparia); [16],0
same,"Plant response rating, Kochia",kochia (Kochia scoparia); [12],30
same,Kochia plant response rating,kochia (Kochia scoparia); [17],0
same,"Plant response rating, Kochia",kochia (Kochia scoparia); [18],10
same,"Plant response rating, Barnyardgrass",[2]; [16],0
same,"Plant response rating, Barnyardgrass",[2]; [12],40
same,Barnyardgrass plant response rating,[2]; [17],0
same,"Plant response rating, Barnyardgrass",[2]; [18],50
same,"Plant response rating, Wheat",[3]; [16],0
same,"Plant response rating, Wheat",[3]; [12],0
same,"Plant response rating, Corn",corn (Zea mays); [16],0
same,"Plant response rating, Corn",corn (Zea mays); [12],30
same,"Plant response rating, Pigweed",[4]; [16],30
same,"Plant response rating, Pigweed",[4]; [12],80
same,Pigweed plant response rating,[4]; [17],100
same,"Plant response rating, Pigweed",[4]; [18],100
same,"Plant response rating, Ryegrass, Italian",[5]; [16],0
same,"Plant response rating, Ryegrass, Italian",[5]; [12],10
same,"Ryegrass, Italian plant response rating",[5]; [17],0
same,"Plant response rating, Ryegrass, Italian",[5]; [18],0
same,"Plant response rating, Foxtail, Giant",[6]; [16],40
same,"Plant response rating, Foxtail, Giant",[6]; [12],70
same,"Foxtail, Giant plant response rating",[6]; [17],50
same,"Plant response rating, Foxtail, Giant",[6]; [18],90
same,Rice plant response rating,rice (Oryza sativa),30
same,Ducksalad plant response rating,[7],40
same,Barnyardgrass plant response rating,[8],60
same,"Sedge, Umbrella plant response rating",[9],80
same,"Plant response rating, Blackgrass",[10]; [16],30
same,"Plant response rating, Blackgrass",[10]; [12],90
same,"Plant response rating, Galium",[11]; [16],90
same,"Plant response rating, Galium",[11]; [12],100
Fc1ccc(Oc2ncc(Cl)cn2)c(-c2cc(C(F)F)on2)c1Br [Compound 114],"Plant response rating, Ragweed",[1]; [16],0
same,"Plant response rating, Ragweed",[1]; [19],0
same,"Plant response rating, Ragweed",[1]; [12],20
same,"Plant response rating, Kochia",kochia (Kochia scoparia); [16],70
same,"Plant response rating, Kochia",kochia (Kochia scoparia); [19],20
same,"Plant response rating, Kochia",kochia (Kochia scoparia); [12],90
same,"Plant response rating, Kochia",kochia (Kochia scoparia); [18],20
same,"Plant response rating, Barnyardgrass",[2]; [16],10
same,"Plant response rating, Barnyardgrass",[2]; [19],0
same,"Plant response rating, Barnyardgrass",[2]; [12],20
same,"Plant response rating, Barnyardgrass",[2]; [18],20
same,"Plant response rating, Wheat",[3]; [16],10
same,"Plant response rating, Wheat",[3]; [12],20
same,"Plant response rating, Corn",corn (Zea mays); [16],30
same,"Plant response rating, Corn",corn (Zea mays); [12],50
same,"Plant response rating, Pigweed",[4]; [16],100
same,"Plant response rating, Pigweed",[4]; [19],70
same,"Plant response rating, Pigweed",[4]; [12],100
same,"Plant response rating, Ryegrass, Italian",[5]; [16],10
same,"Plant response rating, Ryegrass, Italian",[5]; [19],0
same,"Plant response rating, Ryegrass, Italian",[5]; [12],60
same,"Plant response rating, Foxtail, Giant",[6]; [16],20
same,"Plant response rating, Foxtail, Giant",[6]; [19],10
same,"Plant response rating, Foxtail, Giant",[6]; [12],60
same,"Plant response rating, Foxtail, Giant",[6]; [18],30
same,Rice plant response rating,rice (Oryza sativa),15
same,Ducksalad plant response rating,[7],75
same,Barnyardgrass plant response rating,[8],0
same,"Sedge, Umbrella plant response rating",[9],75
same,"Plant response rating, Blackgrass",[10]; [16],10
same,"Plant response rating, Blackgrass",[10]; [12],40
same,"Plant response rating, Galium",[11]; [16],70
same,"Plant response rating, Galium",[11]; [12],100
Clc1cnc(Oc2ccccc2-c2ccns2)nc1 [Compound 233],"Plant response rating, Ragweed",[1]; [19],0
same,"Plant response rating, Ragweed",[1]; [12],0
same,"Plant response rating, Ragweed",[1]; [20],0
same,Ragweed plant response rating,[1]; [14],0
same,"Plant response rating, Kochia",kochia (Kochia scoparia); [19],0
same,"Plant response rating, Kochia",kochia (Kochia scoparia); [12],0
same,"Plant response rating, Kochia",kochia (Kochia scoparia); [20],0
same,Kochia plant response rating,kochia (Kochia scoparia); [14],0
same,"Plant response rating, Barnyardgrass",[2]; [19],0
same,"Plant response rating, Barnyardgrass",[2]; [12],10
same,"Plant response rating, Barnyardgrass",[2]; [20],0
same,Barnyardgrass plant response rating,[2]; [14],0
same,"Plant response rating, Wheat",[3]; [12],0
same,"Plant response rating, Wheat",[3]; [20],0
same,"Plant response rating, Corn",corn (Zea mays); [12],10
same,"Plant response rating, Corn",corn (Zea mays); [20],0
same,"Plant response rating, Pigweed",[4]; [19],0
same,"Plant response rating, Pigweed",[4]; [12],20
same,"Plant response rating, Pigweed",[4]; [20],0
same,Pigweed plant response rating,[4]; [14],0
same,"Plant response rating, Ryegrass, Italian",[5]; [19],0
same,"Plant response rating, Ryegrass, Italian",[5]; [12],0
same,"Plant response rating, Ryegrass, Italian",[5]; [20],0
same,"Ryegrass, Italian plant response rating",[5]; [14],0
same,"Plant response rating, Foxtail, Giant",[6]; [19],0
same,"Plant response rating, Foxtail, Giant",[6]; [12],0
same,"Plant response rating, Foxtail, Giant",[6]; [20],0
same,"Foxtail, Giant plant response rating",[6]; [14],0
same,Rice plant response rating,rice (Oryza sativa),0
same,Ducksalad plant response rating,[7],0
same,Barnyardgrass plant response rating,[8],0
same,"Sedge, Umbrella plant response rating",[9],0
same,"Plant response rating, Blackgrass",[10]; [12],10
same,"Plant response rating, Blackgrass",[10]; [20],0
same,"Plant response rating, Galium",[11]; [12],0
same,"Plant response rating, Galium",[11]; [20],0
